Measured values as given in PubChem BioAssay (NCI).
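Five compound concentrations were applied to cells in 96-well plates for 48 hours; endpoints were derived by simple linear interpolation of the resulting dose-response curve. Abbreviation: GI50, concentration required for 50% inhibition of growth. Definition used: TGI = concentration required for complete inhibition of growth.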

Legend:
Test in all cases: NCI anticancer screen, dose series, 48 h; in the data active = GI50 below about 0.43 µM; inactive = the rest
786-0 renal = test system: 786-0 renal
A498 renal = test system: A498 renal
A549 NSCLC = test system: A549 NSCLC
ACHN renal = test system: ACHN renal
BT-549 breast = test system: BT-549 breast
CAKI-1 renal = test system: CAKI-1 renal
CCRF-CEM leukemia = test system: CCRF-CEM leukemia
COLO 205 colon = test system: COLO 205 colon
DU-145 prostate = test system: DU-145 prostate
HCC-2998 colon = test system: HCC-2998 colon
HCT-116 colon = test system: HCT-116 colon
HCT-15 colon = test system: HCT-15 colon
HL-60(TB) leukemia = test system: HL-60(TB) leukemia
HOP-62 NSCLC = test system: HOP-62 NSCLC
HS 578T breast = test system: HS 578T breast
HT29 colon = test system: HT29 colon
IGROV1 ovarian = test system: IGROV1 ovarian
K-562 leukemia = test system: K-562 leukemia
KM12 colon = test system: KM12 colon
LOX IMVI melanoma = test system: LOX IMVI melanoma
M14 melanoma = test system: M14 melanoma
MALME-3M melanoma = test system: MALME-3M melanoma
MCF7 breast = test system: MCF7 breast
MDA-MB-231 breast = test system: MDA-MB-231 breast
MDA-MB-435 = test system: MDA-MB-435
MOLT-4 leukemia = test system: MOLT-4 leukemia
NCI-H226 lung = test system: NCI-H226 lung
NCI-H23 lung = test system: NCI-H23 lung
NCI-H460 lung = test system: NCI-H460 lung
NCI-H522 lung = test system: NCI-H522 lung
NCI/ADR-RES ovarian = test system: NCI/ADR-RES ovarian
OVCAR-3 ovarian = test system: OVCAR-3 ovarian
OVCAR-4 ovarian = test system: OVCAR-4 ovarian
OVCAR-5 ovarian = test system: OVCAR-5 ovarian
OVCAR-8 ovarian = test system: OVCAR-8 ovarian
PC-3 prostate = test system: PC-3 prostate
RPMI-8226 leukemia = test system: RPMI-8226 leukemia
RXF 393 renal = test system: RXF 393 renal
SF-268 CNS = test system: SF-268 CNS
SF-539 CNS = test system: SF-539 CNS
SK-MEL-2 melanoma = test system: SK-MEL-2 melanoma
SK-MEL-28 melanoma = test system: SK-MEL-28 melanoma
SK-MEL-5 melanoma = test system: SK-MEL-5 melanoma
SN12C renal = test system: SN12C renal
SNB-19 CNS = test system: SNB-19 CNS
SR leukemia = test system: SR leukemia
SW-620 colon = test system: SW-620 colon
T-47D breast = test system: T-47D breast
TK-10 renal = test system: TK-10 renal
U251 CNS = test system: U251 CNS
UACC-257 melanoma = test system: UACC-257 melanoma
UACC-62 melanoma = test system: UACC-62 melanoma
UO-31 renal = test system: UO-31 renal

COc1ccc(/C=C/C(=O)c2cc(OC)c(OC)c(OC)c2)cc1OCc1cn(Cc2ccc(F)cc2)nn1
11.5 µM: TGI (HCC-2998 colon)
> 100 µM: TGI (786-0 renal) | TGI (CAKI-1 renal) | TGI (HCT-15 colon) | TGI (HS 578T breast) | TGI (IGROV1 ovarian) | TGI (K-562 leukemia) | TGI (M14 melanoma) | TGI (MALME-3M melanoma) | TGI (MCF7 breast) | TGI (MDA-MB-231 breast) | TGI (MDA-MB-435) | TGI (NCI/ADR-RES ovarian) | TGI (OVCAR-3 ovarian) | TGI (OVCAR-4 ovarian) | TGI (OVCAR-5 ovarian) | TGI (PC-3 prostate) | TGI (SF-268 CNS) | TGI (SN12C renal) | TGI (SNB-19 CNS) | TGI (SR leukemia) | TGI (SW-620 colon) | TGI (T-47D breast) | TGI (UACC-257 melanoma)
68.5 µM: TGI (MOLT-4 leukemia)
14.3 µM: TGI (UACC-62 melanoma)
15.4 µM: TGI (NCI-H460 lung)
18.2 µM: TGI (KM12 colon)
79.8 µM: TGI (UO-31 renal)
19.4 µM: TGI (U251 CNS)
41 µM: TGI (SK-MEL-2 melanoma)
8.38 µM: TGI (COLO 205 colon)
6.64 µM: TGI (DU-145 prostate)
6.18 µM: TGI (HOP-62 NSCLC)
27.7 µM: TGI (BT-549 breast)
35.5 µM: TGI (SK-MEL-28 melanoma)
inactive: GI50 (786-0 renal) 4.44 µM | GI50 (A498 renal) 12.2 µM | GI50 (A549 NSCLC) 2.63 µM | GI50 (ACHN renal) 3.53 µM | GI50 (BT-549 breast) 3.45 µM | GI50 (CAKI-1 renal) 4.79 µM | GI50 (CCRF-CEM leukemia) 2.14 µM | GI50 (COLO 205 colon) 2.98 µM | GI50 (DU-145 prostate) 2.59 µM | GI50 (HCC-2998 colon) 3.42 µM | GI50 (HCT-116 colon) 2.38 µM | GI50 (HCT-15 colon) 2.04 µM | GI50 (HL-60(TB) leukemia) 3.31 µM | GI50 (HOP-62 NSCLC) 2.14 µM | GI50 (HS 578T breast) 3.38 µM | GI50 (HT29 colon) 3 µM | GI50 (IGROV1 ovarian) 7.4 µM | GI50 (K-562 leukemia) 3.6 µM | GI50 (KM12 colon) 3.14 µM | GI50 (LOX IMVI melanoma) 2.75 µM | GI50 (M14 melanoma) 4.07 µM | GI50 (MALME-3M melanoma) 72.5 µM | GI50 (MCF7 breast) 2.43 µM | GI50 (MDA-MB-231 breast) 2.84 µM | GI50 (MDA-MB-435) 2.78 µM | GI50 (MOLT-4 leukemia) 3.97 µM | GI50 (NCI-H226 lung) 2.26 µM | GI50 (NCI-H23 lung) 18.9 µM | GI50 (NCI-H460 lung) 3.3 µM | GI50 (NCI-H522 lung) 1.74 µM | GI50 (NCI/ADR-RES ovarian) 2.99 µM | GI50 (OVCAR-3 ovarian) 3.41 µM | GI50 (OVCAR-4 ovarian) 3.42 µM | GI50 (OVCAR-5 ovarian) 3.22 µM | GI50 (OVCAR-8 ovarian) 2.58 µM | GI50 (PC-3 prostate) 2.66 µM | GI50 (RPMI-8226 leukemia) 1.7 µM | GI50 (RXF 393 renal) 1.9 µM | GI50 (SF-268 CNS) 2.98 µM | GI50 (SF-539 CNS) 2.49 µM | GI50 (SK-MEL-2 melanoma) 10.6 µM | GI50 (SK-MEL-28 melanoma) 5.62 µM | GI50 (SK-MEL-5 melanoma) 3.24 µM | GI50 (SN12C renal) 3.12 µM | GI50 (SNB-19 CNS) 4.42 µM | GI50 (SR leukemia) 0.843 µM | GI50 (SW-620 colon) 3.16 µM | GI50 (T-47D breast) 3.05 µM | GI50 (TK-10 renal) 3 µM | GI50 (U251 CNS) 2.94 µM | GI50 (UACC-257 melanoma) 4.9 µM | GI50 (UACC-62 melanoma) 3.16 µM | GI50 (UO-31 renal) 4 µM
5.51 µM: TGI (RXF 393 renal)
9.07 µM: TGI (HL-60(TB) leukemia)
18.7 µM: TGI (LOX IMVI melanoma)
31.5 µM: TGI (OVCAR-8 ovarian)
64.2 µM: TGI (NCI-H23 lung)
10.7 µM: TGI (HCT-116 colon)
7.67 µM: TGI (NCI-H226 lung)
7.83 µM: TGI (SF-539 CNS)
7.3 µM: TGI (HT29 colon)
8.06 µM: TGI (TK-10 renal)
16.7 µM: TGI (ACHN renal)
56.2 µM: TGI (A498 renal)
9.13 µM: TGI (A549 NSCLC)
8.66 µM: TGI (CCRF-CEM leukemia)
6.3 µM: TGI (RPMI-8226 leukemia)
5.22 µM: TGI (NCI-H522 lung)
13.3 µM: TGI (SK-MEL-5 melanoma)
